Assay [1] deals with T1, Cholecystokinin receptor type A (Rattus norvegicus, UniProt P30551).
T1 sequence (P30551 whole entry): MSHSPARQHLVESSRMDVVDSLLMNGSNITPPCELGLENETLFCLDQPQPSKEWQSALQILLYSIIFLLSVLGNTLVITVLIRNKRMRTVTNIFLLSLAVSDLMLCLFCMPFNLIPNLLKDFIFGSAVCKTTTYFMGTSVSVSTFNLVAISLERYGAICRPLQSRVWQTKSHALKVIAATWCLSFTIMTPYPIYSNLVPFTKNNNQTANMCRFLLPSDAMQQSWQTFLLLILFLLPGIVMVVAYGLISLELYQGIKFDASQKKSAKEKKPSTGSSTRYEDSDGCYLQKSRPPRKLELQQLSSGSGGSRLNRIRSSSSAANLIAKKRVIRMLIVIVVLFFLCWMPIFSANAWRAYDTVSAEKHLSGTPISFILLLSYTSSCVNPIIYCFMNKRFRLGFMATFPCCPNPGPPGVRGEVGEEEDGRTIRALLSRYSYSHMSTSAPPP
Kind of assay: Compound was evaluated for the binding affinity towards rat pancreatic Cholecystokinin type A receptor.

For assay [2], the system named is Jurkat. Kind of assay: Compound was evaluated for calcium mobilization in Jurkat cells. Type of assay: functional, cell-based. The settings on record: Homo sapiens.
Assay [3] concerns the target T2, Gastrin/cholecystokinin type B receptor (Mus musculus, UniProt P56481).
T2 sequence (P56481 whole entry): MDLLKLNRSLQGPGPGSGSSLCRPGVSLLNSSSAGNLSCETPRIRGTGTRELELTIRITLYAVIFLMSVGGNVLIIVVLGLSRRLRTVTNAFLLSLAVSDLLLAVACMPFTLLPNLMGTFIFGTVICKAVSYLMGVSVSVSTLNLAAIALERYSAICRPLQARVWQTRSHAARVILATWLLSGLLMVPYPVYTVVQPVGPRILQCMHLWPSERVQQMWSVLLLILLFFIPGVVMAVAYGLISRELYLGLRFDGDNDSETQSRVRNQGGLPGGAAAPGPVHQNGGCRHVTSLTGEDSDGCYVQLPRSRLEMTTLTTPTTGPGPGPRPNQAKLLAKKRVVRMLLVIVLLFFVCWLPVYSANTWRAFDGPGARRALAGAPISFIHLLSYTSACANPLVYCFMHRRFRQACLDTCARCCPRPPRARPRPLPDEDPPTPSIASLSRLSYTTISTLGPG
Nature of the assay: Binding affinity towards Cholecystokinin type B receptor in mouse cortex membrane. Type of assay: cell membranes.

For a further assay, the species on record is Rattus norvegicus. Nature of the assay: Compound was evaluated for the stimulation of amylase secretion in isolated rat pancreatic acini.
Assay [4] concerns Jurkat. Kind of assay: Compound was tested for [Ca2+] mobilization in Jurkat cells at 1 uM; Inactive. Type of assay: functional, cell-based, Homo sapiens.

In general, IC50 refers to the concentration that gives 50% inhibition. One may read the EC50 as the concentration that produces a half-maximal response. Consider `Cc1ccccc1NC(=O)NCCCC[C@@H](CC(=O)O)NC(=O)[C@@](C)(Cc1c[nH]c2ccccc12)NC(=O)OC1C2CC3CC(C2)CC1C3` (some centres not stated) [PD-170292], for which the results for the half-inhibitory concentration (IC50) (in assay [1]; in the assay on Jurkat [2]; in assay [3]) were 1.2 nM, 40 nM and 6.7 nM, respectively. Besides, the half-maximal effective concentration (EC50) in the assay listed under Rattus norvegicus is 5 nM; with Jurkat [4], “Not Active”.
For the compound `CSCC[C@H](NC(=O)[C@H](Cc1ccc(OS(=O)(=O)O)cc1)NC(=O)[C@@H](N)CC(=O)O)C(=O)NCC(=O)N[C@@H](Cc1c[nH]c2ccccc12)C(=O)N[C@@H](CCSC)C(=O)N[C@@H](CC(=O)O)C(=O)N[C@@H](Cc1ccccc1)C(N)=O` [SINCALIDE], the EC50 in the assay with Jurkat [2] was found to be 2 nM; in the assay listed under Rattus norvegicus, 0.02 nM.
With `O=C(CC(Cc1c[nH]c2ccccc12)(NC(=O)OC1C2CC3CC(C2)CC1C3)C(=O)NCCc1ccccc1)NCCCCNC(=O)Nc1ccccc1Cl` (configuration not stated), the concentration for half-maximal inhibition (IC50) stood at 150 nM in assay [1] and 3600 nM in assay [3]. In the assay listed under Rattus norvegicus, this compound had an EC50 of 480 nM.
`CC(Cc1c[nH]c2ccccc12)(NC(=O)OC1C2CC3CC(C2)CC1C3)C(=O)N[C@H](CC(=O)O)Cc1ccc(F)cc1` (single isomer, unassigned): the figures for the IC50 in assay [1] and in assay [3] were 75 nM and 0.083 nM, respectively.

The record behind these values is ChEMBL document CHEMBL1132907, “The design and synthesis of the high efficacy, non-peptide CCK1 receptor agonist PD170292” (Bioorg Med Chem Lett, 2000).
